Source: US10131673B2, “Piperidine substituted tricyclic pyrazolo[1,5-a]pyrimidine derivatives with inhibitory activity on the replication of the respiratory syncytial virus (RSV)” (priority 2014, dated 2018)

Columns and labels:
[1] = test system: rgRSV224 virus; test: microbe, parasite or virus in culture; type: cell-based, respiratory syncytial virus (RSV); details: for EC50: human respiratory syncytial virus, HeLa, 72 h, read-out: RSV HELA pEC50 (converted); for RSV HELA pEC50: rgRSV224 virus MOI=1, HeLa cells, GFP expression three days post-virus exposure
[2] = test system: HeLa cells
Experimental: Black 384-well clear-bottom microtiter plates (Corning, Amsterdam, The Netherlands) were filled via acoustic drop ejection using the echo liquid handler (Labcyte, Sunnyvale, Calif.). 200 nL of compound stock solutions (100% DMSO) were transferred to the assay plates. 9 serial 4-fold dilutions of compound were made, creating per quadrant the same compound concentration. The assay was initiated by adding 10 μL of culture medium to each well (RPMI medium without phenol red, 10% FBS-heat inactivated, 0.04% gentamycin (50 mg/mL). All addition steps are done by using a multidrop dispenser (Thermo Scientific, Erembodegem, Belgium). Next, rgRSV224 virus (MOI=1) diluted in culture medium was added to the plates. rgRSV224 virus is an engineered virus that includes an additional GFP gene (Hallak L K, Spillmann D, Collins P L, Peeples M E. Glycosaminoglycan sulfation requirements for respiratory syncytial virus infection; Journal of virology (2000), 74(22), 10508-13) and was in-licensed from the NIH (Bethesda, Md., USA). Finally, 20 μL of a HeLa cell suspension (3,000 cells/well) were plated. Medium, virus- and mock-infected controls were included in each test. The wells contain 0.05% DMSO per volume. Cells were incubated at 37° C. in a 5% CO2 atmosphere. Three days post-virus exposure, viral replication was quantified by measuring GFP expression in the cells by an in house developed MSM laser microscope (Tibotec, Beerse, Belgium). The EC50 was defined as the 50% inhibitory concentration for GFP expression. In parallel, compounds were incubated for three days in a set of white 384-well microtiter plates (Corning) and the cytotoxicity of compounds in HeLa cells was determined by measuring the ATP content of the cells using the ATPlite kit (Perkin Elmer, Zaventem, Belgium) according to the manufacturer's instructions. The CC50 was defined as the 50% concentration for cytotoxicity.

SMILES | EC50 [1] | TOX HELA pCC50 [2] | RSV HELA pEC50 [1]
Cc1cccc2ncnc(N3CCCCC3c3cc4nc5c(c(N6CCOCC6)n4n3)CCC5)c12 (centres unmarked) [Compound P21, 4-(2-(1-(5-methylquinazolin-4-yl)piperidin-2-yl)-6,7-dihydro-5H-cyclopenta[d]pyrazolo[1,5-a]pyrimidin-8-yl)morpholine] | 0.708 µM | 4.6 | –
Cc1nc2cc([C@H]3CCCCN3c3ncnc4cccc(C)c34)nn2c2c1CCCC2 [Compound P39] | – | 4.9 | 5.55
Cc1cccc2nc(NS(C)(=O)=O)nc(N3CCCCC3c3cc4nc5c(c(N6CCOCC6)n4n3)CCC5)c12 (centres unmarked) [Compound P41, N-(5-methyl-4-(2-(8-morpholino-6,7-dihydro-5H-cyclopenta[d]pyrazolo-[1,5-a]pyrimidin-2-yl)piperidin-1-yl)quinazolin-2-yl)methanesulfonamide] | 0.229 µM | 4 | –
Cc1ccc(NS(C)(=O)=O)c(C(=O)N2CCCC[C@@H]2c2cc3nc4c(c(N5CCOCC5)n3n2)CCCC4)c1 [Compound P2, (R)—N-(4-methyl-2-(2-(9-morpholino-5,6,7,8-tetrahydropyrazolo[5,1-b]quinazolin-2-yl)-piperidine-1-carbonyl)phenyl)methanesulfonamide] | 0.0132 µM | 4.3 | –
Cc1cccc2ncnc(N3CCCC[C@H]3c3cc4nc5c(c(C)n4n3)CCCC5)c12 [Compound P38] | – | 4.6 | 6.79
Cc1ccc(NS(C)(=O)=O)c(C(=O)N2CCCCC2c2cc3nc4c(c(N(C)C)n3n2)CCCC4)c1 (centres unmarked) [Compound P15, N-(2-(2-(9-(dimethylamino)-5,6,7,8-tetrahydropyrazolo[5,1-b]quinazolin-2-yl)piperidine-1-carbonyl)-4-methylphenyl)methanesulfonamide] | 0.00178 µM | 4.6 | –
Cc1cccc2ncnc(N3CCCCC3c3cc4nc5c(c(N6CCOCC6)n4n3)CCCC5)c12 (centres unmarked) [Compound P5, 4-(2-(1-(5-methylquinazolin-4-yl)piperidin-2-yl)-5,6,7,8-tetrahydropyrazolo[5,1-b]quinazolin-9-yl)morpholine] | 0.275 µM | 4.6 | –
Cc1ccc(NS(C)(=O)=O)c(C(=O)N2CCCCC2c2cc3nc4c(c(N)n3n2)CCCC4)c1 (centres unmarked) [Compound P19, N-(2-(2-(9-amino-5,6,7,8-tetrahydropyrazolo[5,1-b]quinazolin-2-yl)-piperidine-1-carbonyl)-4-methylphenyl)methanesulfonamide] | 0.0195 µM | 4.3 | –
Cc1ccc(NS(C)(=O)=O)c(C(=O)N2CCCCC2c2cc3nc4c(cn3n2)CCCC4)c1 (centres unmarked) [Compound P17, N-(4-methyl-2-(2-(5,6,7,8-tetrahydropyrazolo[5,1-b]quinazolin-2-yl)-piperidine-1-carbonyl)phenyl)methanesulfonamide] | 0.0977 µM | 4.6 | –
Cc1cccc2ncnc(N3CCCCC3c3cc4nc5c(c(N6CCOCC6)n4n3)CCCCC5)c12 (centres unmarked) [Compound P24, 4-(2-(1-(5-methylquinazolin-4-yl)piperidin-2-yl)-6,7,8,9-tetrahydro-5H-cyclohepta[d]pyrazolo[1,5-a]pyrimidin-10-yl)morpholine] | 9.55 µM | 4.8 | –
Cc1ccc(NS(C)(=O)=O)c(C(=O)N2CCCCC2c2cc3nc(N(C)C)c4c(n3n2)N(C)CCC4)c1 (centres unmarked) [Compound P27, N-(2-(2-(5-(dimethylamino)-9-methyl-6,7,8,9-tetrahydropyrazolo-[1,5-a]pyrido[3,2-e]pyrimidin-2-yl)piperidine-1-carbonyl)-4-methylphenyl)methane-sulfonamide] | 0.00204 µM | 4.3 | –
Cc1cccc2nc(NS(C)(=O)=O)nc(N3CCCCC3c3cc4nc5c(c(N6CCOCC6)n4n3)CCCC5)c12 (centres unmarked) [Compound P7, N-(5-methyl-4-(2-(9-morpholino-5,6,7,8-tetrahydropyrazolo[5,1-b]-quinazolin-2-yl)piperidin-1-yl)quinazolin-2-yl)methanesulfonamide] | 0.00603 µM | 4.2 | –
Cc1ccc(NS(C)(=O)=O)c(C(=O)N2CCCCC2c2cc3nc4c(c(N5CCOCC5)n3n2)CCOC4)c1 (centres unmarked) [Compound P28, N-(4-methyl-2-(2-(9-morpholino-7,8-dihydro-5H-pyrano[3,4-d]pyrazolo-[1,5-a]pyrimidin-2-yl)piperidine-1-carbonyl)phenyl)methane-sulfonamide] | 0.355 µM | 4.6 | –
Cc1cccc2ncnc(N3CCCC[C@@H]3c3cc4nc5c(c(C)n4n3)CCCC5)c12 [Compound P37] | – | 4.4 | 5.11
Cc1nc2cc([C@@H]3CCCCN3c3ncnc4cccc(C)c34)nn2c2c1CCCC2 [Compound P40] | – | 4.7 | 6.7
Cc1cccc2ncnc(N3CCCCC3c3cc4nc5c(c(N6CCOCC6)n4n3)CCOC5)c12 (centres unmarked) [Compound P29, 2-(1-(5-methylquinazolin-4-yl)piperidin-2-yl)-9-morpholino-7,8-dihydro-5H-pyrano[3,4-d]pyrazolo[1,5-a]pyrimidine] | 3.72 µM | 4 | –
Cc1ccc(NS(C)(=O)=O)c(C(=O)N2CCCCC2c2cc3nc4c(c(O)n3n2)CCCC4)c1 (centres unmarked) [Compound P14, N-(2-(2-(9-hydroxy-5,6,7,8-tetrahydropyrazolo[5,1-b]quinazolin-2-yl)-piperidine-1-carbonyl)-4-methylphenyl)methanesulfonamide] | 0.0407 µM | 4.3 | –
Cc1ccc(NS(C)(=O)=O)c(C(=O)N2CCCCC2c2cc3nc4c(c(N5CCOCC5)n3n2)CCCCC4)c1 (centres unmarked) [Compound P23, N-(4-methyl-2-(2-(10-morpholino-6,7,8,9-tetrahydro-5H-cyclohepta[d]-pyrazolo[1,5-a]pyrimidin-2-yl)piperidine-1-carbonyl)phenyl)-methanesulfonamide] | 0.0661 µM | 4.6 | –
Cc1cccc2ncnc(N3CCCCC3c3cc4nc5c(c(N(C)C)n4n3)CCN5C)c12 (centres unmarked) [Compound P42, N,N,5-trimethyl-2-(1-(5-methylquinazolin-4-yl)piperidin-2-yl)-6,7-dihydro-5H-pyrazolo[1,5-a]pyrrolo[2,3-d]pyrimidin-8-amine] | 0.0166 µM | 4.6 | –
Cc1ccc(NS(C)(=O)=O)c(C(=O)N2CCCCC2c2cc3nc4c(c(N(C)C)n3n2)CCCN4C)c1 (centres unmarked) [Compound P26, N-(2-(2-(9-(dimethylamino)-5-methyl-5,6,7,8-tetrahydropyrazolo-[1,5-a]pyrido[2,3-d]pyrimidin-2-yl)piperidine-1-carbonyl)-4-methylphenyl)-methane-sulfonamide] | 0.00158 µM | 4.4 | –
Cc1nc2cc(C3CCCCN3c3ncnc4cccc(C)c34)nn2c2c1CCCC2 (racemic) [Compound P36, 5-methyl-2-(1-(5-methylquinazolin-4-yl)piperidin-2-yl)-6,7,8,9-tetrahydropyrazolo[1,5-a]quinazoline] | 0.977 µM | 4.6 | –
Cc1cccc2ncnc(N3CCCCC3c3cc4nc5c(c(N6CCCC6)n4n3)CCC5)c12 (centres unmarked) [Compound P22, 2-(1-(5-methylquinazolin-4-yl)piperidin-2-yl)-8-(pyrrolidin-1-yl)-6,7-dihydro-5H-cyclopenta[d]pyrazolo[1,5-a]pyrimidine] | 0.282 µM | 4.6 | –
Fc1cccc2ncnc(N3CCCCC3c3cc4nc5c(c(N6CCOCC6)n4n3)CCCC5)c12 (centres unmarked) [Compound P10, 4-(2-(1-(5-fluoroquinazolin-4-yl)piperidin-2-yl)-5,6,7,8-tetrahydropyrazolo-[5,1-b]quinazolin-9-yl)morpholine] | 0.891 µM | 4.6 | –
Cc1cccc2ncnc(N3CCCCC3c3cc4nc5c(cn4n3)CCCC5)c12 (centres unmarked) [Compound P18, 2-(1-(5-methylquinazolin-4-yl)piperidin-2-yl)-5,6,7,8-tetrahydropyrazolo-[5,1-b]quinazoline] | 3.89 µM | 4.3 | –
Cc1ccc(NS(C)(=O)=O)c(C(=O)N2CCCCC2c2cc3nc4c(c(N5CCOCC5)n3n2)COC4)c1 (centres unmarked) [Compound P25, N-(4-methyl-2-(2-(8-morpholino-5,7-dihydrofuro[3,4-d]pyrazolo[1,5-a]-pyrimidin-2-yl)piperidine-1-carbonyl)phenyl)methanesulfonamide] | 0.468 µM | 4 | –
Cc1cccc2ncnc(N3CCCCC3c3cc4nc5c(c(C)n4n3)CCCC5)c12 (centres unmarked) [Compound P35, 9-methyl-2-(1-(5-methylquinazolin-4-yl)piperidin-2-yl)-5,6,7,8-tetrahydropyrazolo[5,1-b]quinazoline] | 0.776 µM | 4.6 | –
CCOc1nc(N2CCCCC2c2cc3nc4c(c(N5CCOCC5)n3n2)COCC4)c2c(C)cccc2n1 (centres unmarked) [Compound P33, 2-(1-(2-ethoxy-5-methylquinazolin-4-yl)piperidin-2-yl)-9-morpholino-6,8-dihydro-5H-pyrano[4,3-d]pyrazolo[1,5-a]pyrimidine] | 0.813 µM | 4.4 | –
Cc1cccc2nc(NS(C)(=O)=O)nc(N3CCCCC3c3cc4nc5c(c(N6CCOCC6)n4n3)COCC5)c12 (centres unmarked) [Compound P32, N-(5-methyl-4-(2-(9-morpholino-6,8-dihydro-5H-pyrano[4,3-d]pyrazolo-[1,5-a]pyrimidin-2-yl)piperidin-1-yl)quinazolin-2-yl)methanesulfonamide] | 0.055 µM | 4 | –
